# Results published in patent publication US20130245081A1, “Compositions and Methods for Treating Amyotrophic Lateral Sclerosis” (priority 2009, published 2013).
# Where two headings read alike, the source gives them in different places.
# Experiments:
# clinical [1] = settings: for AUC(0-t) / AUC(0-inf) / Cmax / Tmax / Vd/F / half-life / CL renal: both, human, oral; for AUC(0-t) / AUC(0-inf) / Cmax / Tmax / Vd/F / half-life: plasma; for AUC(0-t): AUC0-t; for AUC(0-inf): AUCinf; for Vd/F: Vz/F; for CL renal: urine and plasma, CLr
# Description: A total of 54 subjects (30 subjects in Study CL001 and 24 subjects in Study CL002) were enrolled. Healthy, non-smoking, male and female subjects 30 to 60 years of age, inclusive, with normal or clinically acceptable physical examination and electrocardiogram (ECG) findings, systolic (90 to 140 mmHg) and diastolic (50 to 90 mmHg) blood pressure, and resting heart rate (50 to 100 bpm) who were willing to provide signed, written informed consent were eligible for enrollment. Female volunteers had to be of non-childbearing potential with negative pregnancy test results at screening and clinic check-in. Subjects with any history of neurodegenerative illnesses were excluded. The use of over-the-counter medications within 7 days prior to enrollment or prescription medications within 12 weeks prior to enrollment was prohibited.
# In the first study, subjects were enrolled in 3 successive double-blind, placebo-controlled panels of 8 subjects (n=6 active, n=2 placebo per panel).
# Matching placebo capsules contained equivalent weights of microcrystalline cellulose. Capsules were administered orally with water. […] Subjects in the fasted cohorts were required to fast overnight for a minimum of 10 hours before dose administration. Subjects in the food cohort were required to fast overnight for a minimum of 10 hours before dose administration, with exception of the high fat/high calorie meal that was administered 30 minutes prior to drug administration. […] All available safety data were reviewed under blinded conditions to monitor for serious safety or tolerability events prior to proceeding with dose escalations.
# Blood samples were collected into a 10 mL dipotassium ethylenediaminetetraacetic acid (K2-EDTA) Vacutainer® via an indwelling peripheral intravenous cannula or by direct venipuncture. Within 15 minutes of collection, the samples were centrifuged at 3000 rpm for 10 minutes at 4° C. After centrifugation, the plasma was divided into 2 aliquots of at least 1.5 mL each, placed into polypropylene containers, frozen, and stored at −20° C. until they were shipped for analysis.
# Urine collected in each interval was well mixed, the pH was recorded, the total volume (or the weight and specific gravity) was recorded, and 2 aliquots of 20 mL each were collected into polypropylene containers and stored at −20° C. until they were shipped for analysis. All plasma and urine sample were shipped frozen on dry ice in 2 separate shipments per group (1 set of aliquots per shipment) to Eurofins AvTech Laboratories Inc. (Kalamazoo, Mich.) for bioanalytical analysis.
# Plasma and urine concentrations were measured using validated liquid chromatography/mass spectrometry/mass spectrometry (LC/MS/MS) methods. […] The analytical procedure for analysis of plasma samples used a 100 μL aliquot of K2EDTA human plasma. The plasma sample was spiked with 20 μL of working internal standard solution and 20 μL of type 1 water for subject samples and QCs and 20 μL of the appropriate intermediate standard solution for standards. One hundred microliters ([…]) of 50% ammonium hydroxide solution was added to the sample followed by vortex mixing. One milliliter (1 mL) of tertbutyl methyl ether was then added and the sample was vortexed to extract the analyte and internal standard into the organic layer, followed by separation using flash freezing. The organic layer was decanted, evaporated to dryness, and the sample was reconstituted with 0.5 mL of reconstitution solution (0.1% ammonium hydroxide in 50:50 methanol; type 1 water (v/v/v)). A 10 μL aliquot of this reconstituted sample was injected into an LC/MS/MS system for analysis. […] The analytical procedure for analysis of urine samples was essentially similar to the plasma procedure.
# clinical [2] = settings: human, in vivo
# Experimental: Pharmacokinetic analyses were based on data from 20 subjects in the 25 mg Q12H (n=8), 75 mg Q12H (n=8), and 150 mg Q12H (n=4) groups.
# patients with ALS [3] = test system: patients with ALS
# patients with ALS [4] = settings: for treatment failures (6-point or greater drop in ALSFRS-R total score): baseline to 12 weeks; for treatment failures (reduction in VC of 20% or greater): baseline to Week 12
# [5] = combined active treatment groups, Part 1
compound,measurement,setting,value
"CCCN[C@@H]1CCc2nc(N)sc2C1 [dexpramipexole, (6R)-2-amino-4,5,6,7-tetrahydro-6-(propylamino)benzothiazole]",eliminated in urine as unchanged parent drug,clinical [1]; both Phase 1 studies,84-90 % of dose
same,AUC(0-t),"clinical [1]; 50 mg, single 50 mg, fasted",989 ± 295 ng·h/mL
same,AUC(0-inf),"clinical [1]; 50 mg, single 50 mg, fasted",1250 ± 347 ng·h/mL
same,Cmax,"clinical [1]; 50 mg, single 50 mg, fasted",125 ± 22 ng/mL
same,Tmax,"clinical [1]; 50 mg, Tmax (median), single 50 mg, fasted",2.04 h
same,Vd/F,"clinical [1]; 50 mg, single 50 mg, fasted",294 ± 46.2 L
same,AUC(0-t),"clinical [1]; 150 mg, single 150 mg, fasted",3360 ± 780 ng·h/mL
same,AUC(0-t),"clinical [1]; 150 mg, single 150 mg, fed",3080 ± 934 ng·h/mL
same,AUC(0-inf),"clinical [1]; 150 mg, single 150 mg, fasted",3780 ± 1010 ng·h/mL
same,AUC(0-inf),"clinical [1]; 150 mg, single 150 mg, fed",3380 ± 957 ng·h/mL
same,Cmax,"clinical [1]; 150 mg, single 150 mg, fasted",360 ± 60.4 ng/mL
same,Cmax,"clinical [1]; 150 mg, single 150 mg, fed",315 ± 61.6 ng/mL
same,Tmax,"clinical [1]; 150 mg, Tmax (median), single 150 mg, fasted",2.04 h
same,Tmax,"clinical [1]; 150 mg, Tmax (median), single 150 mg, fed",2.58 h
same,Vd/F,"clinical [1]; 150 mg, single 150 mg, fasted",311 ± 68.4 L
same,Vd/F,"clinical [1]; 150 mg, single 150 mg, fed",308 ± 55.9 L
same,half-life,"clinical [1]; 150 mg, t1/2, single 150 mg, fed",6.33 ± 1.49 h
same,AUC(0-t),"clinical [1]; 300 mg, single 300 mg, fasted",8340 ± 3200 ng·h/mL
same,AUC(0-inf),"clinical [1]; 300 mg, single 300 mg, fasted",8620 ± 3260 ng·h/mL
same,Cmax,"clinical [1]; 300 mg, single 300 mg, fasted",781 ± 158 ng/mL
same,Tmax,"clinical [1]; 300 mg, Tmax (median), single 300 mg, fasted",1.98 h
same,Vd/F,"clinical [1]; 300 mg, single 300 mg, fasted",258 ± 73.5 L
same,half-life,"clinical [1]; 300 mg, elimination t1/2, single 50, 150, 300 mg, fasted",6.4 to 6.96 h
same,Tmax,"clinical [1]; Tmax, range over both Phase 1 studies, single and multiple doses",1.75 to 2.58 h
same,half-life,"clinical [1]; t1/2, range over both Phase 1 studies, fasted conditions",6.4 to 8.05 h
same,CL renal,"clinical [1]; 50 mg, single 50 mg, fasted",628 ± 149 mL/min
same,CL renal,"clinical [1]; 150 mg, single 150 mg, fasted",385 mL/min
same,CL renal,"clinical [1]; 150 mg, single 150 mg, fed",559 ± 140 mL/min
same,CL renal,"clinical [1]; 300 mg, single 300 mg, fasted",441 ± 159 mL/min
same,time of maximum concentrations after dosing,clinical [1]; oral administration,2 h
same,CL/F,"clinical [1]; single 50 mg, fasted",527 ± 135 mL/min
same,Fe,"clinical [1]; single 50 mg, fasted",94.7 ± 13.9 % dose
same,Ue,"clinical [1]; single 50 mg, fasted",35.3 ± 5.19 mg
same,λz,"clinical [1]; single 50 mg, fasted",0.1064 ± 0.0171 h⁻¹
same,CL/F,"clinical [1]; single 150 mg, fasted",524 ± 146 mL/min
same,Fe,"clinical [1]; single 150 mg, fasted",66.9 ± 44.8 % dose
same,Ue,"clinical [1]; single 150 mg, fasted",74.8 ± 50.17 mg
same,λz,"clinical [1]; single 150 mg, fasted",0.1001 ± 0.0087 h⁻¹
same,CL/F,"clinical [1]; single 150 mg, fed",581 ± 127 mL/min
same,Fe,"clinical [1]; single 150 mg, fed",86.6 ± 4.21 % dose
same,Ue,"clinical [1]; single 150 mg, fed",96.9 ± 4.71 mg
same,λz,"clinical [1]; single 150 mg, fed",0.1144 ± 0.0259 h⁻¹
same,CL/F,"clinical [1]; single 300 mg, fasted",492 ± 194 mL/min
same,Fe,"clinical [1]; single 300 mg, fasted",88.3 ± 12.5 % dose
same,Ue,"clinical [1]; single 300 mg, fasted",198 ± 28.0 mg
same,λz,"clinical [1]; single 300 mg, fasted",0.1151 ± 0.0309 h⁻¹
same,dose recovered as unchanged parent drug in the urine,clinical [1]; single doses,Approximately 90%
same,dose linearity of pharmacokinetics,clinical [2],linear
same,Tmax,clinical [2]; 25 mg,1.77 h
same,Tmax,clinical [2]; 75 mg,1.82 h
same,Tmax,clinical [2]; 150 mg,1.7 h
same,half-life,clinical [2]; 150 mg,6.63 to 8.73 h
same,Total AE's,"patients with ALS [3]; 50 mg, 12 weeks",19 (82.6%) N (%)
same,percentage of subjects reporting AEs,"patients with ALS [3]; 50 mg, Part 1",83%
same,subjects reporting SAEs,"patients with ALS [3]; 50 mg, Part 1",2 subjects
same,subjects with at least 1 AE possibly or probably treatment-related,"patients with ALS [3]; 50 mg, Part 1",17%
same,Total AE's,"patients with ALS [3]; 150 mg, 12 weeks",25 (96.2%) N (%)
same,Total AE's,"patients with ALS [3]; 300 mg, 12 weeks",23 (88.5%) N (%)
same,percentage of subjects reporting AEs,"patients with ALS [3]; 300 mg, Part 1",89%
same,subjects discontinued due to adverse event (nausea),"patients with ALS [3]; 300 mg, Part 1",1 subjects
same,subjects reporting SAEs,"patients with ALS [3]; 300 mg, Part 1",3 subjects
same,subjects with at least 1 AE possibly or probably treatment-related,"patients with ALS [3]; 300 mg, Part 1",27%
same,deaths during Part 1,"patients with ALS [3]; 50, 150, 300 mg, 12 weeks",No deaths
same,AE fall,patients with ALS [3]; [5],32%
same,AE headache,patients with ALS [3]; [5],13%
same,AE muscular weakness,patients with ALS [3]; [5],24%
same,AE nausea,patients with ALS [3]; [5],11%
same,AE post lumber puncture syndrome,patients with ALS [3]; [5],19%
same,safety and tolerability,"patients with ALS [3]; total daily doses of 50, 150, 300 mg, 12 weeks",safe and well-tolerated
same,treatment failures (6-point or greater drop in ALSFRS-R total score),patients with ALS [4]; 50 mg/day,35%
same,mean change from baseline to endpoint in ALSFRS-R total score,"patients with ALS [4]; 50 mg, 12 weeks",−5.0
same,median change from baseline to endpoint in ALSFRS-R score,"patients with ALS [4]; 50 mg, 12 weeks",−3.0
same,mean ALSFRS-R total score,"patients with ALS [4]; 50 mg, Week 12 of Part 1",32.4
same,mean McGill SIS score,"patients with ALS [4]; 50 mg, Week 12 of Part 1",6.3
same,mean upright VC,"patients with ALS [4]; 50 mg, Week 12 of Part 1",82.5%
same,treatment failures (reduction in VC of 20% or greater),patients with ALS [4]; 50 mg,13%
same,treatment failures (6-point or greater drop in ALSFRS-R total score),patients with ALS [4]; 150 mg/day,15%
same,mean change from baseline to endpoint in ALSFRS-R total score,"patients with ALS [4]; 150 mg, 12 weeks",−3.3
same,median change from baseline to endpoint in ALSFRS-R score,"patients with ALS [4]; 150 mg, 12 weeks",−2.5
same,mean ALSFRS-R total score,"patients with ALS [4]; 150 mg, Week 12 of Part 1",35.8
same,mean upright VC,"patients with ALS [4]; 150 mg, Week 12 of Part 1",82.3%
same,treatment failures (reduction in VC of 20% or greater),patients with ALS [4]; 150 mg,12%
same,treatment failures (6-point or greater drop in ALSFRS-R total score),patients with ALS [4]; 300 mg/day,8%
same,mean fine motor domain change of ALSFRS-R (mean±SEM),"patients with ALS [4]; 300 mg/day, study endpoint",−0.6±0.24
same,mean change from baseline to endpoint in ALSFRS-R total score,"patients with ALS [4]; 300 mg, 12 weeks",−2.2
same,median change from baseline to endpoint in ALSFRS-R score,"patients with ALS [4]; 300 mg, 12 weeks",−2.0
same,reduction of mean ALSFRS-R decline compared with placebo,"patients with ALS [4]; 300 mg, 12 weeks",39%
same,reduction of median ALSFRS-R decline compared with placebo,"patients with ALS [4]; 300 mg, 12 weeks",50%
same,slope of ALSFRS-R scores (linear mixed-effects),"patients with ALS [4]; 300 mg, Part 1",−0.878
same,mean ALSFRS-R total score,"patients with ALS [4]; 300 mg, Week 12 of Part 1",36.2
same,mean McGill SIS score,"patients with ALS [4]; 300 mg, Week 12 of Part 1",7.3
same,mean upright VC,"patients with ALS [4]; 300 mg, Week 12 of Part 1",82.1%
same,median upright VC,"patients with ALS [4]; 300 mg, Week 12 of Part 1",91.2%
same,treatment failures (reduction in VC of 20% or greater),patients with ALS [4]; 300 mg,4%
same,reduction in handwriting score (FIG. 4A),patients with ALS [4]; daily doses of 30 mg (so in the source),almost no reduction
